In patent publication US20200163984A1, “USE OF ISOVALERYL SPIRAMYCIN I, II AND/OR III IN MANUFACTURING MEDICAMENT FOR TREATING AND/OR PREVENTING TUMOR, AND MEDICAMENT” (SHENYANG FUYANG PHARMACEUTICAL TECHNOLOGY CO., LTD., priority 2017, published 2020):
In brackets after ≈: the same amount, converted by molar mass.

Columns and labels:
[1] = test system: transplanted tumor of human prostate cancer cell PC3; assay: PC3 transplanted tumor in nude mice
Method: Then cell concentration was adjusted to 1×10^7/ml with matrigel, then each nude mouse was inoculated subcutaneously with 0.2 ml of cells at its right armpit and recorded as the first day of inoculation. When the tumor grows to be greater than or equal to 100 mm^3, the mice were randomly divided into 11 groups with 6 mice in each group: a model group, a cyclophosphamide group, isovaleryl spiramycin I groups with doses of 25, 50 and 100 mg/kg, isovaleryl spiramycin II groups with doses of 25, 50 and 100 mg/kg, and isovaleryl spiramycin III groups with doses of 25, 50 and 100 mg/kg. Each group was continuously administered intragastrically for 30 days with a dose of 20 ml/kg. The mice were sacrificed the next day after drug withdrawal and the indicators were tested. The long diameter and short diameter of the tumor, and the body weight of each mouse were recorded every 3 days from drug administration to nude mouse sacrifice.
The body weight of the nude mice and the long diameter (a) and short diameter (b) of the transplanted tumor were measured every 3 days, and the tumor volume (v), relative tumor volume (RTV) and relative tumor proliferation rate (T/C) are calculated respectively according to the following formulas, wherein V=a×b^2/2; RTV=V/V0 (V0 is the tumor volume before administration, V is the tumor volume before sacrifice), and T/C (%)=treatment group RTV/model control group RTV×100%.
Each mouse was weighed and sacrificed. After the tumor was completely stripped off from the body of the mouse, the non-tumor tissues such as blood stains and fat were removed to weigh the tumor and calculate the tumor growth inhibition rate. The average tumor weight of each group of mice is used as an indicator of efficacy. Tumor growth inhibition rate (%)=(1−the average tumor weight of the treatment group/the average tumor weight of the model group)×100%.

[2] = test system: human renal clear cell adenocarcinoma cell 786-O; settings: MTT, 48 hours
Method: (§1) The purpose of the assay is to evaluate the in vitro cell proliferation inhibition or cytotoxic activity of a tested sample.
(§2) MCF-7, MDA-MB-231, HepG2, A549, H460, H1299, 786-0, 769-P, U251, A172, HeLa, PC3, PANC-1, TE-1, SGC7901, and HT-29 were adherent tumor cells. The adherent tumor cells in the logarithmic growth phase were selected and digested with trypsin, then were prepared into a 4 to 5×10^4/ml cell suspension by a medium containing 10% fetal bovine serum. And the cell suspension was inoculated in a 96-well culture plate, and each well was 100 μL. The 96-well culture plate was cultured at 37° C. and 5% CO2 for 24 hours. The experimental group was replaced with a new culture medium containing different concentrations of the sample to be tested, namely, isovaleryl spiramycin I, isovaleryl spiramycin II, or isovaleryl spiramycin III, while the control group was replaced with a culture medium containing the same volume of solvent. Each group was set up with 3 parallel wells that were cultured at 37° C. and 5% CO2 for 48 hours. After the supernatant was removed, the wells were washed carefully for 3 times with PBS. And 100 μL of freshly prepared culture medium containing 0.5 mg/ml MTT was added to each well for continuous incubation for 4 hours at 37° C. After the supernatant was removed carefully, 150 μL of DMSO was added to each well, and after the material was mixed for 10 minutes with a micro-oscillator, the optical density value was measured at 492 nm with a microplate reader.
(§3) The inhibition rate of the medicament on tumor cell growth is calculated according to the following formula:
(§4) Tumor cell growth inhibition rate (%)=[A492 (negative control)−A492 (dosing group)]/A492 (negative control)×100%
(§5) And the half-inhibitory concentration (IC50) of the sample is determined therefrom.

[3] = test system: human esophageal cancer cell TE-1; settings: TE-1, MTT, 48 hours
Method: as §1, §2, §3, §4, §5

[4] = test system: human hepatoma cells HepG2; settings: HepG2, MTT, 48 hours
Method: as §1, §2, §3, §4, §5

[5] = test system: human pancreatic cancer cell PANC-1; settings: PANC-1, MTT, 48 hours
Method: as §1, §2, §3, §4, §5

[6] = test system: human renal cell adenocarcinoma cell 769-P; settings: MTT, 48 hours
Method: as §1, §2, §3, §4, §5

[7] = test system: human non-small cell lung cancer cells A549; settings: A549, MTT, 48 hours
Method: as §1, §2, §3, §4, §5

[8] = test system: human large cell lung cancer cells H1299; settings: H1299, MTT, 48 hours
Method: as §1, §2, §3, §4, §5

[9] = test system: human gastric adenocarcinoma cell SGC7901; settings: SGC-7901, MTT, 48 hours
Method: as §1, §2, §3, §4, §5

[10] = test system: human glioblastoma cell A172; settings: A172, MTT, 48 hours
Method: as §1, §2, §3, §4, §5

human glioma cell U251 = settings: U251, MTT, 48 hours
Method: as §1, §2, §3, §4, §5

[11] = test system: human prostate cancer cell PC3; settings: PC3, MTT, 48 hours
Method: as §1, §2, §3, §4, §5

[12] = test system: human breast cancer cells MDA-MB-231; settings: MDA-MB-231, MTT, 48 hours
Method: as §1, §2, §3, §4, §5

[13] = test system: human large cell lung cancer cells H460; settings: H460, MTT, 48 hours
Method: as §1, §2, §3, §4, §5

[14] = test system: human breast cancer cells MCF-7; settings: MCF-7, MTT, 48 hours
Method: as §1, §2, §3, §4, §5

[15] = test system: human colon cancer cell HT-29; settings: HT-29, MTT, 48 hours
Method: as §1, §2, §3, §4, §5

[16] = test system: human cervical cancer cell HeLa; settings: MTT, 48 hours
Method: as §1, §2, §3, §4, §5

[17] = PC3, 25 mg/kg (low dose) i.g. 30 days
[18] = PC3, 50 mg/kg (medium dose) i.g. 30 days
[19] = PC3, 100 mg/kg (high dose) i.g. 30 days

Question: What does the source list for `CO[C@@H]1[C@@H](O[C@@H]2O[C@H](C)[C@@H](O[C@H]3C[C@@](C)(O)[C@@H](OC(=O)CC(C)C)[C@H](C)O3)[C@H](N(C)C)[C@H]2O)[C@@H](CC=O)C[C@@H](C)[C@@H](O[C@H]2CC[C@H](N(C)C)[C@@H](C)O2)/C=C/C=C/C[C@@H](C)OC(=O)C[C@H]1O` [Isovaleryl spiramycin I, isovaleryl spiramycin I]?
Answer: Inhibition Rate (tumor growth inhibition rate) [1, 17]: 33.87%; Relative Tumor Proliferation Rate (T/C) [1, 17]: 70.43%; Relative Tumor Volume (RTV) [1, 17]: 13.78 ± 3.15; Tumor Volume (d 1) [1, 17]: 127.59 ± 6.73 mm3; Tumor Volume (d 30) [1, 17]: 1758.15 ± 412.68 mm3; Tumor Weight [1, 17]: 1.24 ± 0.51 g; Inhibition Rate (tumor growth inhibition rate) [1, 18]: 51.33%; Relative Tumor Proliferation Rate (T/C) [1, 18]: 49.14%; Relative Tumor Volume (RTV) [1, 18]: 9.61 ± 3.15; Tumor Volume (d 1) [1, 18]: 186.59 ± 39.40 mm3; Tumor Volume (d 30) [1, 18]: 1706.14 ± 347.50 mm3; Tumor Weight [1, 18]: 0.91 ± 0.33 g; Inhibition Rate (tumor growth inhibition rate) [1, 19]: 71.01%; Relative Tumor Proliferation Rate (T/C) [1, 19]: 30.72%; Relative Tumor Volume (RTV) [1, 19]: 6.01 ± 1.78; Tumor Volume (d 1) [1, 19]: 175.94 ± 12.32 mm3; Tumor Volume (d 30) [1, 19]: 1041.69 ± 247.71 mm3; Tumor Weight [1, 19]: 0.55 ± 0.21 g; tumor volume and relative tumor volume compared with the model group ([1]; PC3, low, medium and high doses, P<0.05): significantly lower; mouse weight compared with the model group ([1]; mouse, in vivo): no significant changes; IC50 [2]: 5.08 ± 0.08 µg/mL (≈ 5.48 µM); IC50 [3]: 8.42 ± 1.53 µg/mL (≈ 9.08 µM); IC50 [4]: 17.90 ± 1.74 µg/mL (≈ 19.3 µM); IC50 [5]: 9.96 ± 0.46 µg/mL (≈ 10.7 µM); IC50 [6]: 5.09 ± 0.04 µg/mL (≈ 5.49 µM); IC50 [7]: 19.93 ± 1.66 µg/mL (≈ 21.5 µM); IC50 [8]: 24.03 ± 2.07 µg/mL (≈ 25.9 µM); IC50 [9]: 11.28 ± 1.27 µg/mL (≈ 12.2 µM); IC50 [10]: 10.24 ± 0.37 µg/mL (≈ 11 µM); IC50 (human glioma cell U251): 11.01 ± 0.32 µg/mL (≈ 11.9 µM); IC50 [11]: 9.39 ± 0.85 µg/mL (≈ 10.1 µM); IC50 [12]: 18.12 ± 0.61 µg/mL (≈ 19.5 µM); IC50 [13]: 19.31 ± 0.35 µg/mL (≈ 20.8 µM); IC50 [14]: 20.79 ± 1.57 µg/mL (≈ 22.4 µM); IC50 [15]: 17.30 ± 0.52 µg/mL (≈ 18.7 µM); IC50 [16]: 10.31 ± 0.27 µg/mL (≈ 11.1 µM)
